The numbers were not newly measured in patent publication US8071602B2, “Piperidine and piperazine derivatives” (M's Science Corporation, priority 2005, dated 2011), which cites them from elsewhere.

The data set concerns rats. The conditions noted are these: microinjection.

Structures are written as SMILES.

For the molecule `Cc1ccccc1NC(=N)Nc1ccccc1C` [DTG, 1,3-di-2-tolyl-guanidine], the neck dystonia result is listed as “induced neck dystonia”.

Regarding `COc1ccc(CCN2CCN(CCCc3ccccc3)CC2)cc1OC` [SA-4503, 1-[2-(3,4-dimethoxyphenyl)ethyl]-4-(3-phenylpropyl)piperazine], the neck dystonia result is recorded as “no effect”.
